Assay results published in patent publication US9814704B2, “Substituted pyrrolo[2,3-b]pyridines as MLK inhibitors” (The University of Rochester, priority 2008, dated 2017).

The compounds below were run against MLK3 (Homo sapiens (Human), UniProt Q16584) (assay: Radiometric Filter Plate MLK3 Assay). Settings: 200 ng (130 nM) MLK3, 1 μM inactive MKK7b, 2 μM cold ATP (Km), 33P ATP, twenty minute incubation; read-out: MK3 IC50.
Assay type: biochemical
Method: Radiometric Filter Plate MLK3 Assay
After a twenty minute incubation, the reactions were washed through filter plates and read on a scintillation counter. Results are shown in Table 4 below, in which +++ indicates ≦0.1 μM, ++ indicates >0.1 μM and ≦1 μM, and + indicates >1 μM.

Chain of MLK3 (Q16584 whole entry): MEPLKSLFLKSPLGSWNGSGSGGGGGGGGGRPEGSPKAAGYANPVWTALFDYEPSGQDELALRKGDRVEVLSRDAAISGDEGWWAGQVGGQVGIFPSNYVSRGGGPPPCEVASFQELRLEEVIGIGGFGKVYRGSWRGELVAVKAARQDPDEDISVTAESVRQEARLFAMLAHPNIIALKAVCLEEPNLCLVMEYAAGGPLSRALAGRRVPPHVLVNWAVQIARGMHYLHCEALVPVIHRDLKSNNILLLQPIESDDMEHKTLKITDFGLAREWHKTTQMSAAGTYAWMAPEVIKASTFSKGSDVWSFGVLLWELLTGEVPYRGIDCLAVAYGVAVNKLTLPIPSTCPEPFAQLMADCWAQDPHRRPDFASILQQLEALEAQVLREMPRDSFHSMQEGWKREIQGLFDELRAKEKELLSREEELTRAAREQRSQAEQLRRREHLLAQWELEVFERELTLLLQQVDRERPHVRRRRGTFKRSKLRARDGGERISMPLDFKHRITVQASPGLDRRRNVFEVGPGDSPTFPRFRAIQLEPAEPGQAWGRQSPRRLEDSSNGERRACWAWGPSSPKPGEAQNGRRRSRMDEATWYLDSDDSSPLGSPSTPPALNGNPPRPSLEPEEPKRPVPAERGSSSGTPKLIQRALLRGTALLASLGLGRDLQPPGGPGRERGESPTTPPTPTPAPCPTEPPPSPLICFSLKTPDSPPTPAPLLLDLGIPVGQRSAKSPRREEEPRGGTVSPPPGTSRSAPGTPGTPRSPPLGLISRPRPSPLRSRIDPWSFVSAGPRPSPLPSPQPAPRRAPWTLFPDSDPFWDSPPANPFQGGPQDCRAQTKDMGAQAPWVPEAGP

| IC50 | Compound |
| --- | --- |
| > 1000 nM | O=c1[nH]c2ncc(-c3ccc(N4CCOCC4)cc3)nc2n1-c1ccc2scnc2c1 [Example 100, 1-(benzo[d]thiazol-5-yl)-6-(4-morpholinophenyl)-1H-imidazo[4,5-b]pyrazin-2(3H)-one] |
| > 1000 nM | COc1cc(OC)cc(-c2cnc3[nH]c(=O)n(-c4ccc5[nH]ccc5c4)c3n2)c1 [Example 65, 6-(3,5-dimethoxyphenyl)-1-(1H-indol-5-yl)-1H-imidazo[4,5-b]pyrazin-2(3H)-one] |
| < 100 nM | CS(=O)(=O)Nc1ccc(-c2cnc3[nH]cc(-c4ccc5[nH]ccc5c4)c3c2)cc1 [Example 11, N-(4-(3-(1H-indol-5-yl)-1H-pyrrolo[2,3-b]pyridin-5-yl)phenyl)methanesulfonamide] |
| < 100 nM | COc1cc(-c2cnc3[nH]c(=O)n(C4CCCC4)c3n2)cc(OC)c1OC [Example 74, 1-cyclopentyl-6-(3,4,5-trimethoxyphenyl)-1H-imidazo[4,5-b]pyrazin-2(3H)-one] |
| > 1000 nM | COc1cc(-c2cnc3c(c2)C(=Cc2cccc(C#N)c2)C(=O)N3)cc(OC)c1OC [Example 134, 3-[2-oxo-5-(3,4,5-trimethoxy-phenyl)-1,2-dihydro-pyrrolo[2,3-b]pyridin-3-ylidenemethyl]-benzonitrile] |
| > 1000 nM | O=c1[nH]c2ncc(-c3ccncc3)nc2n1-c1ccc2scnc2c1 [Example 98, 1-(benzo[d]thiazol-5-yl)-6-(pyridin-4-yl)-1H-imidazo[4,5-b]pyrazin-2(3H)-one] |
| > 1000 nM | COc1cc(-c2cnc3[nH]cc(-c4ccc5[nH]ccc5c4)c3c2)ccc1OCCN(C)C [Example 35, 2-(4-(3-(1H-indol-5-yl)-1H-pyrrolo[2,3-b]pyridin-5-yl)-2-methoxyphenoxy)-N,N-dimethylethanamine] |
| > 1000 nM | COc1cc(-c2cnc3c(c2)C(Cc2ccc(C(N)=O)cc2)C(=O)N3)cc(OC)c1OC (centres unmarked) [Example 138, 4-[2-oxo-5-(3,4,5-trimethoxy-phenyl)-2,3-dihydro-1H-pyrrolo[2,3-b]pyridin-3-ylmethyl]-benzamide] |
| < 100 nM | CC(=O)Nc1ccc(-c2cnc3[nH]cc(-c4ccc5[nH]ccc5c4)c3c2)cc1 [Example 3, N-(4-(3-(1H-indol-5-yl)-1H-pyrrolo[2,3-b]pyridin-5-yl)phenyl)acetamide] |
| > 1000 nM | O=c1[nH]c2ncc(-c3cc(Cl)cc(Cl)c3)nc2n1-c1ccc2[nH]ccc2c1 [Example 48, 6-(3,5-dichlorophenyl)-1-(1H-indol-5-yl)-1H-imidazo[4,5-b]pyrazin-2(3H)-one] |
| > 1000 nM | Cc1cc2cc(-n3c(=O)[nH]c4ncc(-c5ccncc5)nc43)ccc2[nH]1 [Example 85, 1-(2-methyl-1H-indol-5-yl)-6-(pyridin-4-yl)-1H-imidazo[4,5-b]pyrazin-2(3H)-one] |
| > 1000 nM | Nc1ccc(-c2cnc3[nH]c(=O)n(C4CCCC4)c3n2)cn1 [Example 117, 6-(6-aminopyridin-3-yl)-1-cyclopentyl-1H-imidazo[4,5-b]pyrazin-2(3H)-one] |
| < 100 nM | COc1cc(-c2cnc3[nH]cc(-c4ccc5[nH]ccc5c4)c3c2)ccc1N [Example 5, 4-(3-(1H-indol-5-yl)-1H-pyrrolo[2,3-b]pyridin-5-yl)-2-methoxyaniline] |

Same assay, conditions: read-out: MK3 IC50

| IC50 | Compound |
| --- | --- |
| 100 to 1000 nM | O=c1[nH]c2ncc(-c3cccc(O)c3)nc2n1-c1ccc2[nH]ccc2c1 [Example 54, 6-(3-hydroxyphenyl)-1-(1H-indol-5-yl)-1H-imidazo[4,5-b]pyrazin-2(3H)-one] |
| 100 to 1000 nM | COc1cc(-c2cnc3[nH]c(=O)n(-c4ccc5[nH]ccc5c4)c3n2)ccc1OCCN1CCNCC1 [Example 67, 1-(1H-indol-5-yl)-6-(3-methoxy-4-(2-(piperazin-1-yl)ethoxy)phenyl)-1H-imidazo[4,5-b]pyrazin-2(3H)-one] |
| 100 to 1000 nM | O=c1[nH]c2ncc(-c3ccc(N4CCOCC4)cc3)nc2n1-c1ccc2[nH]cnc2c1 [Example 104, 1-(1H-benzo[d]imidazol-5-yl)-6-(4-morpholinophenyl)-1H-imidazo[4,5-b]pyrazin-2(3H)-one] |
| 100 to 1000 nM | NC(=O)c1ccc(-c2c[nH]c3ncc(-c4ccc(N)nc4)cc23)cc1 [Example 28, 4-(5-(6-aminopyridin-3-yl)-1H-pyrrolo[2,3-b]pyridin-3-yl)benzamide] |
| 100 to 1000 nM | COc1cc(-c2cnc3[nH]cc(-c4ccc(F)cc4)c3c2)cc(OC)c1OC [Example 166, 3-(4-fluoro-phenyl)-5-(3,4,5-trimethoxy-phenyl)-1H-pyrrolo[2,3-b]pyridine] |
| 100 to 1000 nM | CN1CCN(Cc2ccc(-c3cnc4[nH]cc(-c5ccc(C(N)=O)cc5)c4c3)cc2)CC1 [Example 155, 4-{5-[4-(4-methyl-piperazin-1-ylmethyl)-phenyl]-1H-pyrrolo[2,3-b]pyridin-3-yl}-benzamide] |
| 100 to 1000 nM | COc1ccc(-c2cnc3[nH]c(=O)n(-c4cnc5[nH]ccc5c4)c3n2)cc1OC [Example 111, 6-(3,4-dimethoxyphenyl)-1-(1H-pyrrolo[2,3-b]pyridin-5-yl)-1H-imidazo[4,5-b]pyrazin-2(3H)-one] |
| 100 to 1000 nM | O=c1[nH]c2ncc(-c3ccc(O)cc3)nc2n1-c1ccc2scnc2c1 [Example 97, 1-(benzo[d]thiazol-5-yl)-6-(4-hydroxyphenyl)-1H-imidazo[4,5-b]pyrazin-2(3H)-one] |
| 100 to 1000 nM | c1cc2cc(-c3cnc4[nH]cc(-c5ccc6[nH]ccc6c5)c4c3)ccc2[nH]1 [Example 12, 3,5-di(1H-indol-5-yl)-1H-pyrrolo[2,3-b]pyridine] |
| 100 to 1000 nM | COc1cc(-c2cnc3[nH]c(=O)n(-c4ccc5c(ccn5C)c4)c3n2)cc(OC)c1OC [Example 41, 1-(1-methyl-1H-indol-5-yl)-6-(3,4,5-trimethoxyphenyl)-1H-imidazo[4,5-b]pyrazin-2(3H)-one] |
| 100 to 1000 nM | COc1ccc(-c2cnc3[nH]cc(-c4ccc5[nH]ccc5c4)c3c2)cn1 [Example 6, 3-(1H-indol-5-yl)-5-(6-methoxypyridin-3-yl)-1H-pyrrolo[2,3-b]pyridine] |

| Compound | IC50 |
| --- | --- |
| CC(=O)N1CCN(C(=O)c2ccc(-c3cnc4[nH]cc(-c5ccc(C(N)=O)cc5)c4c3)cc2)CC1 [Example 150, 4-{5-[4-(4-acetyl-piperazine-1-carbonyl)-phenyl]-1H-pyrrolo[2,3-b]pyridin-3-yl}-benzamide] | 100 to 1000 nM |
| COc1cc(-c2cnc3c(c2)C(=Cc2cccnc2)C(=O)N3)cc(OC)c1OC (racemic) [Example 128, 3-pyridin-3-ylmethylene-5-(3,4,5-trimethoxy-phenyl)-1,3-dihydro-pyrrolo[2,3-b]pyridin-2-one] | 100 to 1000 nM |
